Measured values reported in PMC1810525, “Antagonism of the prostaglandin D2 receptor CRTH2 attenuates asthma pathology in mouse eosinophilic airway inflammation” (Respiratory Research, 2007).

Tests used:
BLT1 = BLT1 (Homo sapiens, UniProt Q15722); test: Profiling panel, radioligand binding BLT1; settings: 10 μM
Description: (§1) All assays were performed using recombinant human receptors and enzymes, and included the appropriate controls for assay validation. Enzymatic and binding assays, except for muscarinic binding, were performed by CEREP in vitro pharmacology profiling services. […] For stimulation of C3a, C5a, and ChemR23 receptors in InsP assays the following agonists were used: human recombinant C3a (C3a receptor), human recombinant C5a (C5a receptor), and the nonapeptide Chemerin (ChemR23).

C3a = biological target: T1, C3a (Homo sapiens, UniProt Q16581); test: Profiling panel, functional InsP C3a receptor; type: cell-based; settings: 10 μM
T1 sequence (Q16581 1-482): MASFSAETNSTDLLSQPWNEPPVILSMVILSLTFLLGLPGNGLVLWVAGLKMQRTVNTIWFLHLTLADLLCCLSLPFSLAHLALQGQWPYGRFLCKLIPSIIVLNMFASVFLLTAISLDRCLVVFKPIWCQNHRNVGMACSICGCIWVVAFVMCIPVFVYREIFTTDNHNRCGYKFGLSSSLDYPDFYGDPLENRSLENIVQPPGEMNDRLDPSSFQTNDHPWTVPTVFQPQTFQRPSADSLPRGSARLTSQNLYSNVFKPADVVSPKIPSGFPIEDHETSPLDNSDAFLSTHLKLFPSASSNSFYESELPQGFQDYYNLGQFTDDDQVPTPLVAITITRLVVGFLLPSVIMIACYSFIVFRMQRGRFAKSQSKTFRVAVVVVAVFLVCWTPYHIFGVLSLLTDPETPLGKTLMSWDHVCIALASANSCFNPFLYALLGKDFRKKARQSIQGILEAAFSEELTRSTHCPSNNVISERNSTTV

CXCR2 = biological target: T2, CXCR2 (Homo sapiens, UniProt P25025); test: Profiling panel, radioligand binding CXCR2; settings: 10 μM
T2 sequence (P25025 1-360): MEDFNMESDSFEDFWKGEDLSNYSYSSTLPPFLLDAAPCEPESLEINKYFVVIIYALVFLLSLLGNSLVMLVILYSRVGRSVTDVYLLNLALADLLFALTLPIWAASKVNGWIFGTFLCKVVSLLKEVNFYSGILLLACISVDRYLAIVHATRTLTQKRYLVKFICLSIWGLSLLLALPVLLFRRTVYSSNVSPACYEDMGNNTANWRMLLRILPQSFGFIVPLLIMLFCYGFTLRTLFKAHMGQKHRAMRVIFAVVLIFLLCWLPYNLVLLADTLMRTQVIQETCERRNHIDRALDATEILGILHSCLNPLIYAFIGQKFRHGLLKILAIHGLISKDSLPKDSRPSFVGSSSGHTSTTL
Description: as §1

AT2 = biological target: T3, AT2 (Homo sapiens, UniProt P50052); test: Profiling panel, radioligand binding AT2; settings: 10 μM
T3 sequence (P50052 1-363): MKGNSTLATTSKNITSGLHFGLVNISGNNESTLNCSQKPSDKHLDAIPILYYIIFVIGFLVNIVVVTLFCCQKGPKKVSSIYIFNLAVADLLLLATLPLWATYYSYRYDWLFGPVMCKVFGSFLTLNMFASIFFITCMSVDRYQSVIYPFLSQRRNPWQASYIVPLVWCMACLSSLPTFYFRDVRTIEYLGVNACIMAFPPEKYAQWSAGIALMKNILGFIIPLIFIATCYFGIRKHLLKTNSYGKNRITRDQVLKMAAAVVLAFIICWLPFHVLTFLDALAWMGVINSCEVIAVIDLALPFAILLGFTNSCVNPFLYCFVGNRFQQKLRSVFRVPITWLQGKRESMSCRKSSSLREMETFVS
Description: as §1

iNOS = iNOS (Homo sapiens, UniProt P35228); test: Profiling panel, enzymatic assay iNOS; type: biochemical; settings: 10 μM
Description: as §1

ChemR23 = biological target: T4, ChemR23 (Homo sapiens, UniProt Q99788); test: Profiling panel, functional InsP ChemR23; type: cell-based; settings: 10 μM
T4 sequence (Q99788 1-373): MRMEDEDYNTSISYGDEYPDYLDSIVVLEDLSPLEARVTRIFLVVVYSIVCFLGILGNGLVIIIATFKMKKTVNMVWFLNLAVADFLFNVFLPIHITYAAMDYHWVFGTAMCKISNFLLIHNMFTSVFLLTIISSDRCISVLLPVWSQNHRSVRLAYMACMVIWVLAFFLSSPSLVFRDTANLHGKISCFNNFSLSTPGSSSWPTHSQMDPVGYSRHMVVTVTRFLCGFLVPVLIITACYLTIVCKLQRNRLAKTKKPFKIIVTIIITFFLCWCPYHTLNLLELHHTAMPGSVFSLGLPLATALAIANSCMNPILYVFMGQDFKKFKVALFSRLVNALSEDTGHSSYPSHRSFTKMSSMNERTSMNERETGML

AT1 = biological target: T5, AT1 (Homo sapiens, UniProt P30556); test: Profiling panel, radioligand binding AT1; settings: 10 μM
T5 sequence (P30556 1-359): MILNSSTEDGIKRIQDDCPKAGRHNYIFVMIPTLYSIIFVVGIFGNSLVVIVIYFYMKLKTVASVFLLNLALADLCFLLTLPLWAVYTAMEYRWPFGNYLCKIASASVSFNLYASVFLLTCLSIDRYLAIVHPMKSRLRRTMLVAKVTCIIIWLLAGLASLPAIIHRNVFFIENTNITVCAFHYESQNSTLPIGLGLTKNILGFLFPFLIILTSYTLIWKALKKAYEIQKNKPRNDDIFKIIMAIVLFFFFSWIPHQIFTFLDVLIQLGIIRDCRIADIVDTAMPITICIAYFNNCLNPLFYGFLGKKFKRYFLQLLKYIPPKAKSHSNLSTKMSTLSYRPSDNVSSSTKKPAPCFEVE
Description: as §1

COX1 = COX1 (Homo sapiens, UniProt P23219); test: Profiling panel, enzymatic assay COX1; type: biochemical; settings: 10 μM
Sequence of COX1 (P23219 24-599): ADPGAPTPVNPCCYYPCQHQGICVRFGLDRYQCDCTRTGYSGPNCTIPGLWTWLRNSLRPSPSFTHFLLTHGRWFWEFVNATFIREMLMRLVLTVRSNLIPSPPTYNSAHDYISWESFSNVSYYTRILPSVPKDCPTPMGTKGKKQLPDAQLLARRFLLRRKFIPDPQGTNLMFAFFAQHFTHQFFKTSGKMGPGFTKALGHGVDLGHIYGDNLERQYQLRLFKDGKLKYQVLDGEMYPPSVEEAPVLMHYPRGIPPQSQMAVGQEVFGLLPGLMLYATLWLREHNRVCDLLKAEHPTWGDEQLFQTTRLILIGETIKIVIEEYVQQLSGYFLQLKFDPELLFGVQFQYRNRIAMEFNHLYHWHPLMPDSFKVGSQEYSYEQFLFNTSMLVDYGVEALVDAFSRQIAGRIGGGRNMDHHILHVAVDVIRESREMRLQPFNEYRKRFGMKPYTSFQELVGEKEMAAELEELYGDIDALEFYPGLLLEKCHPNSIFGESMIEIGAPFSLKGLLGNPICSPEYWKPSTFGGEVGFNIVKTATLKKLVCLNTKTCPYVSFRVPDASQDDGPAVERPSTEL
Description: as §1

mCRTH2 = biological target: mCRTH2; design: method as in PMID 15563582; settings: obtained by others in the same expression system; read-out: reported Ki value mCRTH2; cited from earlier work

Sequence of BLT1 (Q15722 whole entry): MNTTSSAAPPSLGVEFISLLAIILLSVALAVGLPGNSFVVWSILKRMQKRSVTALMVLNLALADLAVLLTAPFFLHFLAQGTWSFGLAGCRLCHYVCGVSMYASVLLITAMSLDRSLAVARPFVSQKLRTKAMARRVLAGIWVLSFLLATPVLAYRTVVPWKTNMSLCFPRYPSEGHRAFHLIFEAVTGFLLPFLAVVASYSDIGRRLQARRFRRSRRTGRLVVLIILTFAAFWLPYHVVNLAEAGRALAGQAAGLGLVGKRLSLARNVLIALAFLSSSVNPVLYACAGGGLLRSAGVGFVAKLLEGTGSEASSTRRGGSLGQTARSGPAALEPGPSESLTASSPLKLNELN

SMILES | % of control BLT1 (BLT1) [%] | % of control C3a (C3a) [%] | % of control CXCR2 (CXCR2) [%] | % of control AT2 (AT2) [%] | % of control iNOS (iNOS) [%] | % of control ChemR23 (ChemR23) [%] | % of control AT1 (AT1) [%] | % of control COX1 (COX1) [%] | Ki (mCRTH2) [nM]
CN(C1CCc2c(c3ccccc3n2CC(=O)O)C1)S(=O)(=O)c1ccc(F)cc1 (stereo not drawn) [TM30089] | 89.3 ± 3.5 | 88.7 ± 5.9 | 104.6 ± 6.1 | 98.1 ± 1.4 | 102.3 ± 3.6 | 96.6 ± 1.6 | 90.1 ± 2.8 | 109.6 ± 3.6 | 
O=C(O)CCn1c2c(c3ccccc31)C[C@H](NS(=O)(=O)c1ccc(F)cc1)CC2 [ramatroban, reference compound] |  |  |  |  |  |  |  |  | 28
